This note sets out measurements from patent EP0774465A1, “Penem derivatives and antimicrobial agents containing the same” (priority 1995, dated 1997).

In brackets after ≈: the same amount, converted by molar mass. Where two headings read alike, the source gives them in different places.

Usually MIC stands for the lowest concentration that inhibits growth of the organism.

The subject of one assay is MRSA 31. As to the kind of experiment: Antibacterial activity (MIC) against MRSA 31. The conditions noted are these: for MIC: Staphylococcus aureus, MRSA, read-out: antibacterial activities (MIC). The assay is classed as cell-based, methicillin-resistant Staphylococcus aureus. The text has this: (§1) With respect to compounds (I) of the present invention obtained as described above, their general antibacterial activities and their antibacterial activities (MIC) against various methicillin-resistant strains of Staphylococcus aureus (methicillin-resistant Staphylococcus aureus: MRSA) were investigated. The results will be shown in Table 1, in which the test compounds are indicated by the numbers of their working examples to be described subsequently. Further, as the general antibacterial activities, those of Staphylococcus aureus 209P JC-1 and Escherichia coli NIHJ JC-2 were used.
(§2) (The unit for the figures in the table is µg/mℓ.)

For assay [1], the system named is Staphylococcus aureus 209P JC-1. As to the kind of experiment: General antibacterial activity (MIC) against Staphylococcus aureus 209P JC-1. The assay is classed as cell-based. The conditions noted are these: for MIC: Staphylococcus aureus, read-out: antibacterial activities (MIC).
Text: as §1, §2

The subject of assay [2] is Escherichia coli NIHJ JC-2. As to the kind of experiment: General antibacterial activity (MIC) against Escherichia coli NIHJ JC-2. In kind it is cell-based. As to conditions: for antibacterial activities (MIC): NIHJ JC-2, 10^6 cfu/mℓ; for MIC: Escherichia coli.
Text: as §1, §2

A further assay has as its system MRSA 33. Nature of the assay: Antibacterial activity (MIC) against MRSA 33. The assay is classed as cell-based, methicillin-resistant Staphylococcus aureus. As to conditions: for MIC: Staphylococcus aureus, MRSA, read-out: antibacterial activities (MIC).
Text: as §1, §2

Setting [3] is: NIHJJC2, NIHJ JC-2, 10^6 cfu/mℓ, read-out: antibacterial activities (MIC).

Consider “(5R,6R)-6-((S)-1-fluoroethyl)-2-methylthiopenem-3-carboxylic acid [Ex. 99]”, for which the “antibacterial activities (MIC)” value with MRSA 31 (MRSA 31, 10^6 cfu/mℓ) was 6.25 µg/mL; in assay [1] (209P JC-1, 10^6 cfu/mℓ), 0.1 µg/mL; in assay [2], 0.78 µg/mL; with MRSA 33 (MRSA 33, 10^6 cfu/mℓ), 6.25 µg/mL.
For the compound `CCCSC1=C(C(=O)O)N2C(=O)[C@@H]([C@H](C)O)[C@H]2S1` [Ex. 46, (5R,6R)-6-((S)-1-hydroxyethyl)-2-propylthiopenem-3-carboxylic acid], the MIC with MRSA 31 (MRSA 31, 10^6 cfu/mℓ) was determined as 12.5 µg/mL (≈ 43.2 µM); in assay [1] (209P JC-1, 10^6 cfu/mℓ), 0.39 µg/mL (≈ 1.35 µM); in assay [2] (setting [3]) it was 0.78 µg/mL (≈ 2.7 µM); with MRSA 33 (MRSA 33, 10^6 cfu/mℓ), 12.5 µg/mL (≈ 43.2 µM).
`C[C@H](O)[C@@H]1C(=O)N2C(C(=O)O)=C(S[C@H]3CCN(CC(=O)c4ccccc4)C3)S[C@H]12` [Ex. 88, (5R,6R)-6-((S)-1-hydroxyethyl)-2-[(S)-1-(2-oxo-2-phenylethyl)pyrrolidin-3-ylthio]penem-3-carboxylic acid]: the MIC with MRSA 31 (MRSA 31, 10^6 cfu/mℓ) turned out to be 6.25 µg/mL (≈ 14.4 µM); in assay [1] (209P JC-1, 10^6 cfu/mℓ), 0.2 µg/mL (≈ 0.46 µM); in assay [2] (setting [3]) it was 0.39 µg/mL (≈ 0.898 µM); in the assay with MRSA 33 (MRSA 33, 10^6 cfu/mℓ), 6.25 µg/mL (≈ 14.4 µM).
In the case of `CC(=N)N1CC[C@H](SC2=C(C(=O)O)N3C(=O)[C@H]([C@H](C)F)[C@H]3S2)C1` [Ex. 106, (5R,6R)-6-((S)-1-fluoroethyl)-2-[(S)-1-(1-iminoethyl)pyrrolidin-3-ylthio]penem-3-carboxylic acid], the MIC is 3.13 µg/mL (≈ 8.71 µM) in the assay with MRSA 31 (MRSA 31, 10^6 cfu/mℓ); 0.05 µg/mL (≈ 0.139 µM) in assay [1] (209P JC-1, 10^6 cfu/mℓ); 1.56 µg/mL (≈ 4.34 µM) in assay [2] (setting [3]); 3.13 µg/mL (≈ 8.71 µM) in the assay with MRSA 33 (MRSA 33, 10^6 cfu/mℓ).
As for `C[C@H](F)[C@H]1C(=O)N2C(C(=O)O)=C(SC3CCN(c4ccccc4)C3)S[C@H]12` (single isomer, unassigned) [Ex. 107 (Isomer A)], the “antibacterial activities (MIC)” value in the assay on MRSA 31 (MRSA 31, 10^6 cfu/mℓ) was determined as 1.56 µg/mL; in the assay on MRSA 33 (MRSA 33, 10^6 cfu/mℓ), 1.56 µg/mL. Also, the MIC in assay [1] (209P JC-1, 10^6 cfu/mℓ) is 0.1 µg/mL (≈ 0.253 µM); in assay [2] (setting [3]) it was more than 25 µg/mL.
As to `CCSC1=C(C(=O)O)N2C(=O)[C@@H]([C@H](C)O)[C@H]2S1` [Ex. 41, (5R,6R)-6-((S)-1-hydroxyethyl)-2-ethylthiopenem-3-carboxylic acid], the MIC in the assay with MRSA 31 (MRSA 31, 10^6 cfu/mℓ) was 12.5 µg/mL (≈ 45.4 µM); in assay [1] (209P JC-1, 10^6 cfu/mℓ), 0.2 µg/mL (≈ 0.726 µM); in assay [2] (setting [3]), 0.2 µg/mL (≈ 0.726 µM); in the assay on MRSA 33 (MRSA 33, 10^6 cfu/mℓ), 12.5 µg/mL (≈ 45.4 µM).
Take `C[C@H](O)[C@@H]1C(=O)N2C(C(=O)O)=C(S[C@@H]3CN[C@H](CO)C3)S[C@H]12` [Ex. 94, (5R,6R)-6-((S)-1-hydroxyethyl)-2-[(2S,4S)-2-hydroxymethylpyrrolidin-4-ylthio]penem-3-carboxylic acid]: the MIC amounted to 6.25 µg/mL (≈ 18 µM) with MRSA 31 (MRSA 31, 10^6 cfu/mℓ); 0.1 µg/mL (≈ 0.289 µM) in assay [1] (209P JC-1, 10^6 cfu/mℓ); 0.2 µg/mL (≈ 0.577 µM) in assay [2] (setting [3]); 6.25 µg/mL (≈ 18 µM) in the assay on MRSA 33 (MRSA 33, 10^6 cfu/mℓ).
With `CSC1=C(C(=O)O)N2C(=O)[C@@H]([C@H](C)O)[C@H]2S1` [Ex. 40, (5R,6R)-6-((S)-1-hydroxyethyl)-2-methylthiopenem-3-carboxylic acid], the minimum inhibitory concentration (MIC) in the assay with MRSA 31 (MRSA 31, 10^6 cfu/mℓ) is 12.5 µg/mL (≈ 47.8 µM); in assay [1] (209P JC-1, 10^6 cfu/mℓ), 0.39 µg/mL (≈ 1.49 µM); in assay [2] (setting [3]) it was 0.39 µg/mL (≈ 1.49 µM); in the assay on MRSA 33 (MRSA 33, 10^6 cfu/mℓ), 12.5 µg/mL (≈ 47.8 µM).
In the case of `C[C@H](O)[C@@H]1C(=O)N2C(C(=O)O)=C(SCCc3ccccn3)S[C@H]12` [Ex. 73, (5R,6R)-6-((S)-1-hydroxyethyl)-2-[2-(2-pyridyl)ethyl]thiopenem-3-carboxylic acid], the MIC with MRSA 31 (MRSA 31, 10^6 cfu/mℓ) amounted to 6.25 µg/mL (≈ 17.7 µM); in assay [1] (209P JC-1, 10^6 cfu/mℓ), 0.05 µg/mL (≈ 0.142 µM); in assay [2] (setting [3]), 0.78 µg/mL (≈ 2.21 µM); in the assay on MRSA 33 (MRSA 33, 10^6 cfu/mℓ), 6.25 µg/mL (≈ 17.7 µM).
On to `C[C@H](O)[C@@H]1C(=O)N2C(C(=O)O)=C(SCCc3ccccc3)S[C@H]12` [Ex. 43, (5R,6R)-6-((S)-1-hydroxyethyl)-2-phenethylthiopenem-3-carboxylic acid], for which the MIC in the assay on MRSA 31 (MRSA 31, 10^6 cfu/mℓ) was found to be 6.25 µg/mL (≈ 17.8 µM); in assay [1] (209P JC-1, 10^6 cfu/mℓ), 0.2 µg/mL (≈ 0.569 µM); in assay [2] (setting [3]), 12.5 µg/mL (≈ 35.6 µM); in the assay on MRSA 33 (MRSA 33, 10^6 cfu/mℓ) it was 6.25 µg/mL (≈ 17.8 µM).
With `C[C@H](O)[C@@H]1C(=O)N2C(C(=O)O)=C(SCc3ccc4ccccc4c3)S[C@H]12` [Ex. 76, (5R,6R)-6-((S)-1-hydroxyethyl)-2-(2-naphthyl)methylthiopenem-3-carboxylic acid], the MIC with MRSA 31 (MRSA 31, 10^6 cfu/mℓ) is 3.13 µg/mL (≈ 8.08 µM); in assay [1] (209P JC-1, 10^6 cfu/mℓ), 0.1 µg/mL (≈ 0.258 µM); in assay [2] (setting [3]) it was 12.5 µg/mL (≈ 32.3 µM); with MRSA 33 (MRSA 33, 10^6 cfu/mℓ), 3.13 µg/mL (≈ 8.08 µM).
In the case of `CC(=N)N1CC[C@H](SC2=C(C(=O)O)N3C(=O)[C@@H]([C@H](C)O)[C@H]3S2)C1` [Ex. 89, (5R,6R)-6-((S)-1-hydroxyethyl)-2-[(S)-1-(1-iminoethyl)pyrrolidin-3-ylthio]penem-3-carboxylic acid], the MIC was 6.25 µg/mL (≈ 17.5 µM) in the assay on MRSA 31 (MRSA 31, 10^6 cfu/mℓ); 0.1 µg/mL (≈ 0.28 µM) in assay [1] (209P JC-1, 10^6 cfu/mℓ); 0.39 µg/mL (≈ 1.09 µM) in assay [2] (setting [3]); 6.25 µg/mL (≈ 17.5 µM) in the assay with MRSA 33 (MRSA 33, 10^6 cfu/mℓ).
For the compound `C[C@H](O)[C@@H]1C(=O)N2C(C(=O)O)=C(SC3Cc4ccccc4C3)S[C@H]12` [Ex. 71, (5R,6R)-6-((S)-1-hydroxyethyl)-2-(2-indanyl)thiopenem-3-carboxylic acid], the MIC in the assay with MRSA 31 (MRSA 31, 10^6 cfu/mℓ) was 3.13 µg/mL (≈ 8.61 µM); in assay [1] (209P JC-1, 10^6 cfu/mℓ) it was 0.05 µg/mL (≈ 0.138 µM); in assay [2] (setting [3]) it was 6.25 µg/mL (≈ 17.2 µM); with MRSA 33 (MRSA 33, 10^6 cfu/mℓ) it was 1.56 µg/mL (≈ 4.29 µM).
Taken in the same sequence, the figures for `C[C@H](O)[C@@H]1C(=O)N2C(C(=O)O)=C(SC3CCc4ccccc43)S[C@H]12` (stereo partly drawn) [Ex. 81, (5R,6R)-6-((S)-1-hydroxyethyl)-2-(1-indanyl)thiopenem-3-carboxylic acid] were 3.13 µg/mL (≈ 8.61 µM), 0.1 µg/mL (≈ 0.275 µM), 6.25 µg/mL (≈ 17.2 µM) and 3.13 µg/mL (≈ 8.61 µM).
Taken in the same sequence, the figures for `C[C@H](O)[C@@H]1C(=O)N2C(C(=O)O)=C(SCC(=O)NCc3ccccc3)S[C@H]12` [Ex. 13, (5R,6R)-2-(N-benzylcarbamoylmethyl)thio-6-((S)-1-hydroxyethyl)penem-3-carboxylic acid] were 12.5 µg/mL (≈ 31.7 µM), 0.39 µg/mL (≈ 0.989 µM), 3.13 µg/mL (≈ 7.93 µM) and 12.5 µg/mL (≈ 31.7 µM).
In the case of `C[C@H](O)[C@@H]1C(=O)N2C(C(=O)O)=C(SCCF)S[C@H]12` [Ex. 48, (5R,6R)-6-((S)-1-hydroxyethyl)-2-(2-fluoroethyl)thiopenem-3-carboxylic acid], the minimum inhibitory concentration (MIC) was 12.5 µg/mL (≈ 42.6 µM) in the assay on MRSA 31; 0.2 µg/mL (≈ 0.682 µM) in assay [1] (209P); 0.1 µg/mL (≈ 0.341 µM) in assay [2] (NIHJJC2, read-out: antibacterial activities (MIC)); 12.5 µg/mL (≈ 42.6 µM) in the assay with MRSA 33.
Take `C[C@H](O)[C@@H]1C(=O)N2C(C(=O)O)=C(SCc3ccccc3)S[C@H]12` [Ex. 42, (5R,6R)-6-((S)-1-hydroxyethyl)-2-benzylthiopenem-3-carboxylic acid]: the MIC in the assay on MRSA 31 (MRSA 31, 10^6 cfu/mℓ) worked out at 3.13 µg/mL (≈ 9.28 µM); in assay [1] (209P JC-1, 10^6 cfu/mℓ), 0.1 µg/mL (≈ 0.296 µM); in assay [2] (setting [3]) it was 6.25 µg/mL (≈ 18.5 µM); in the assay on MRSA 33 (MRSA 33, 10^6 cfu/mℓ), 3.13 µg/mL (≈ 9.28 µM).
With `C[C@H](F)[C@H]1C(=O)N2C(C(=O)O)=C(SC3CCN(c4ccccc4)C3)S[C@H]12` (single isomer, unassigned) [Ex. 107 (Isomer B)], the “antibacterial activities (MIC)” value with MRSA 31 (MRSA 31, 10^6 cfu/mℓ) came out at 3.13 µg/mL; in assay [1] (209P JC-1, 10^6 cfu/mℓ), 0.1 µg/mL; in assay [2] it was 50 µg/mL; with MRSA 33 (MRSA 33, 10^6 cfu/mℓ), 3.13 µg/mL.
Take `CC(C)SC1=C(C(=O)O)N2C(=O)[C@@H]([C@H](C)O)[C@H]2S1` [Ex. 47, (5R,6R)-6-((S)-1-hydroxyethyl)-2-(1-methylethyl)thiopenem-3-carboxylic acid]: the MIC was found to be 12.5 µg/mL (≈ 43.2 µM) in the assay on MRSA 31 (MRSA 31, 10^6 cfu/mℓ); 0.2 µg/mL (≈ 0.691 µM) in assay [1] (209P JC-1, 10^6 cfu/mℓ); 0.2 µg/mL (≈ 0.691 µM) in assay [2] (setting [3]); 12.5 µg/mL (≈ 43.2 µM) with MRSA 33 (MRSA 33, 10^6 cfu/mℓ).
`C[C@H](O)[C@@H]1C(=O)N2C(C(=O)O)=C(S[C@H]3CCN(CCF)C3)S[C@H]12` [Ex. 79, (5R,6R)-6-((S)-l-hydroxyethyl)-2-[(S)-1-(2-fluoroethyl)pyrrolidin-3-yl]thiopenem-3-carboxylic acid]: the MIC in the assay with MRSA 31 (MRSA 31, 10^6 cfu/mℓ) was 6.25 µg/mL (≈ 17.2 µM); in assay [1] (209P JC-1, 10^6 cfu/mℓ) it was 0.1 µg/mL (≈ 0.276 µM); in assay [2] (setting [3]), 0.1 µg/mL (≈ 0.276 µM); with MRSA 33 (MRSA 33, 10^6 cfu/mℓ) it was 6.25 µg/mL (≈ 17.2 µM).
